Experimental data taken from US6355799B1, “Substituted benzene compounds, process for their preparation, and herbicidal and defoliant compositions containing them” (ISK Americas Incorporated, priority 1997, dated 2002).

Key:
Type in all cases: in vivo
[1] = test system: johnsongrass (Sorghum halepense, SORHA); assay: Pre-emerge test, greenhouse herbicide activity screening; details: pre-emerge, 14 days after application, rating scale 0-100
In short: (§1)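 Herbicidal damage is scored 0 (none) to 100 (complete plant death) two weeks after a simulated field spray. Rates span 15–1000 g ai/ha, delivered in acetone at 187 l/ha. For post-emergence treatments, plants have 2–3 leaves and the spray carries 0.25% v/v non-ionic surfactant.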

[2] = test system: barnyardgrass (Echinochloa crus-galli, ECHCG); assay: as above; details: pre-emerge, 14 days after application, rating scale 0-100
In short: as §1

[3] = test system: sicklepod (Cassia obtusifolia, CASOB); assay: as above; details: pre-emerge, 14 days after application, rating scale 0-100
In short: as §1

[4] = test system: green foxtail (Setaria viridis, SETVI); assay: as above; details: pre-emerge, 14 days after application, rating scale 0-100
In short: as §1

[5] = test system: velvetleaf (Abutilon theophrasti, ABUTH); assay: as above; details: pre-emerge, 14 days after application, rating scale 0-100
In short: as §1

[6] = test system: large crabgrass (Digitaria sanguinalis, DIGSA); assay: as above; details: pre-emerge, 14 days after application, rating scale 0-100
In short: as §1

[7] = test system: ivyleaf morningglory (Ipomoea hederacea, IPOHE); assay: as above; details: pre-emerge, 14 days after application, rating scale 0-100
In short: as §1

[8] = test system: lambsquarters (Chenopodium album, CHEAL); assay: as above; details: pre-emerge, 14 days after application, rating scale 0-100
In short: as §1

[9] = test system: field corn (Zea mays L., var. Dekalb 535, CORN); assay: Post-emerge test, crop safety; details: post-emerge, 14 days after application, rating scale 0-100
In short: as §1

[10] = test system: upland rice (Oryza sp., var. Tebonnet, RICE); assay: Post-emerge test, crop safety; details: post-emerge, 14 days after application, rating scale 0-100
In short: as §1

[11] = test system: field corn (Zea mays L., var. Dekalb 535, CORN); assay: Pre-emerge test, crop safety; details: pre-emerge, 14 days after application, rating scale 0-100
In short: (§2)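 Compounds in acetone were track-sprayed at 187 l/ha, 15–1000 g ai/ha, onto sandy loam pots. Pre-emerge seeds were sown one day before spraying, with surface watering afterwards. Post-emerge plants were at the 2–3 leaf stage and sprayed with 0.25% v/v non-ionic surfactant. Injury was rated 0–100 at 14 days.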

[12] = test system: upland rice (Oryza sp., var. Tebonnet, RICE); assay: Pre-emerge test, crop safety; details: pre-emerge, 14 days after application, rating scale 0-100
In short: as §2

[13] = test system: johnsongrass (Sorghum halepense, SORHA); assay: Post-emerge test, greenhouse herbicide activity screening; details: post-emerge, 14 days after application, rating scale 0-100
In short: (§3)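 Compounds in acetone were track-sprayed at 15-1000 g ai/ha (187 l/ha) on sandy loam pots: pre-emerge one day after seeding, post-emerge at 2-3 leaf stage with 0.25% v/v non-ionic surfactant. Phytotoxicity was rated 14 days later on a 0 (no damage) to 100 (complete death) scale.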

[14] = test system: barnyardgrass (Echinochloa crus-galli, ECHCG); assay: as above; details: post-emerge, 14 days after application, rating scale 0-100
In short: as §3

[15] = test system: sicklepod (Cassia obtusifolia, CASOB); assay: as above; details: post-emerge, 14 days after application, rating scale 0-100
In short: as §3

[16] = test system: redroot pigweed (Amaranthus retroflexus, AMARE); assay: as above; details: post-emerge, 14 days after application
In short: as §3

[17] = test system: green foxtail (Setaria viridis, SETVI); assay: as above; details: post-emerge, 14 days after application, rating scale 0-100
In short: as §3

[18] = test system: velvetleaf (Abutilon theophrasti, ABUTH); assay: as above; details: post-emerge, 14 days after application, rating scale 0-100
In short: as §3

[19] = test system: large crabgrass (Digitaria sanguinalis, DIGSA); assay: as above; details: post-emerge, 14 days after application, rating scale 0-100
In short: as §3

[20] = test system: ivyleaf morningglory (Ipomoea hederacea, IPOHE); assay: as above; details: post-emerge, 14 days after application, rating scale 0-100
In short: as §3

[21] = test system: lambsquarters (Chenopodium album, CHEAL); assay: as above; details: post-emerge, 14 days after application, rating scale 0-100
In short: as §3

[22] = test system: redroot pigweed (Amaranthus retroflexus, AMARE); assay: Pre-emerge test, greenhouse herbicide activity screening; details: pre-emerge, 14 days after application, rating scale 0-100
In short: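 Visual ratings on a 0-100 scale (0 no damage, 100 all plants dead) were taken at 14 days after treatment. Rates of 15-1000 g ai/ha in acetone, 187 l/ha, were sprayed onto soil one day after planting (pre-emerge) or onto 2-3 leaf plants with 0.25% v/v surfactant (post-emerge).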

COc1c(Cl)cc(F)c(-n2c(=O)cc(C(F)(F)F)n(C)c2=O)c1NN=CCCSC [15-14]
phytotoxicity rating SORHA ([1]; 63 g ai/ha): 100
phytotoxicity rating SORHA ([1]; 250 g ai/ha): 100
phytotoxicity rating ECHCG ([2]; 63 g ai/ha): 100
phytotoxicity rating ECHCG ([2]; 250 g ai/ha): 100
phytotoxicity rating CASOB ([3]; 63 g ai/ha): 90
phytotoxicity rating CASOB ([3]; 250 g ai/ha): 100
phytotoxicity rating SETVI ([4]; 63 g ai/ha): 100
phytotoxicity rating SETVI ([4]; 250 g ai/ha): 100
phytotoxicity rating ABUTH ([5]; 63 g ai/ha): 100
phytotoxicity rating ABUTH ([5]; 250 g ai/ha): 100
phytotoxicity rating DIGSA ([6]; 63 g ai/ha): 100
phytotoxicity rating DIGSA ([6]; 250 g ai/ha): 100
phytotoxicity rating IPOHE ([7]; 63 g ai/ha): 100
phytotoxicity rating IPOHE ([7]; 250 g ai/ha): 100
phytotoxicity rating CHEAL ([8]; 63 g ai/ha): 100
phytotoxicity rating CHEAL ([8]; 250 g ai/ha): 100
Post-emerge Herbicidal Activity CORN (crop damage rating) ([9]; 63 g ai/ha): 20
Post-emerge Herbicidal Activity CORN (crop damage rating) ([9]; 250 g ai/ha): 65
Post-emerge Herbicidal Activity RICE (crop damage rating) ([10]; 63 g ai/ha): 40
Post-emerge Herbicidal Activity RICE (crop damage rating) ([10]; 250 g ai/ha): 50
phytotoxicity rating CORN ([11]; 63 g ai/ha): 40
phytotoxicity rating CORN ([11]; 250 g ai/ha): 99
phytotoxicity rating RICE ([12]; 63 g ai/ha): 99
phytotoxicity rating RICE ([12]; 250 g ai/ha): 100
Post-emerge Herbicidal Activity SORHA (phytotoxicity rating) ([13]; 63 g ai/ha): 20
Post-emerge Herbicidal Activity SORHA (phytotoxicity rating) ([13]; 250 g ai/ha): 70
Post-emerge Herbicidal Activity ECHCG (phytotoxicity rating) ([14]; 63 g ai/ha): 20
Post-emerge Herbicidal Activity ECHCG (phytotoxicity rating) ([14]; 250 g ai/ha): 90
Post-emerge Herbicidal Activity CASOB (phytotoxicity rating) ([15]; 63 g ai/ha): 80
Post-emerge Herbicidal Activity CASOB (phytotoxicity rating) ([15]; 250 g ai/ha): 100
Post-emerge Herbicidal Activity AMARE (phytotoxicity rating) ([16]; 63 g ai/ha, rating scale 0-100 (0 no damage, 100 complete death)): 100
Post-emerge Herbicidal Activity AMARE (phytotoxicity rating) ([16]; 250 g ai/ha, rating scale 0-100): 100
Post-emerge Herbicidal Activity SETVI (phytotoxicity rating) ([17]; 63 g ai/ha): 20
Post-emerge Herbicidal Activity SETVI (phytotoxicity rating) ([17]; 250 g ai/ha): 55
Post-emerge Herbicidal Activity ABUTH (phytotoxicity rating) ([18]; 63 g ai/ha): 100
Post-emerge Herbicidal Activity ABUTH (phytotoxicity rating) ([18]; 250 g ai/ha): 100
Post-emerge Herbicidal Activity DIGSA (phytotoxicity rating) ([19]; 63 g ai/ha): 20
Post-emerge Herbicidal Activity DIGSA (phytotoxicity rating) ([19]; 250 g ai/ha): 60
Post-emerge Herbicidal Activity IPOHE (phytotoxicity rating) ([20]; 63 g ai/ha): 100
Post-emerge Herbicidal Activity IPOHE (phytotoxicity rating) ([20]; 250 g ai/ha): 100
Post-emerge Herbicidal Activity CHEAL (phytotoxicity rating) ([21]; 63 g ai/ha): 100
Post-emerge Herbicidal Activity CHEAL (phytotoxicity rating) ([21]; 250 g ai/ha): 100
phytotoxicity rating AMARE ([22]; 63 g ai/ha): 100
phytotoxicity rating AMARE ([22]; 250 g ai/ha): 100
